Data as given in patent US5252563A, “5,6,7,8-tetrahydro-imidazo[1,2-a]pyrimidine compounds for treatment of neurotoxic injury” (G. D. Searle & Company, priority 1991, dated 1993).
pKi: −log10 of the molar value. Counter-ions that a name gives are not always drawn.

Key:
[1] = system: NMDA receptor (N-methyl-D-aspartate-specific L-[^3 H]glutamate recognition site in synaptic plasma membranes); assay: NMDA-Selective Glutamate Binding Assay ([^3 H]GLU)
Method: (§1) Synaptic plasma membranes (SPM) were prepared as previously described [Monahan, J.B. and Michel, J., "Identification and Characterization of an N-methyl-D-aspartate-specific L[^3 H]glutamate Recognition Site in Synaptic Plasma Membranes, J. Neurochem., 48, […] (1987)]. The SPM were stored at a concentration of 10-15 mg/ml in 0.32M sucrose, 0.5 mM EDTA, 1 mM MgSO4, 5 mM Tris/SO4, pH 7.4, under liquid nitrogen. The identity and purity of the subcellular fractions were confirmed by both electron microscopy and marker enzymes. Protein concentrations were determined by using a modification of the method of Lowry [Ohnishi, S.T. and Barr, J.K., "A Simplified Method of Quantitating Proteins Using the Biuret and Phenol Reagents", anal. Biochem., 86, 193-197 (1978)]. The SPM were treated identically for the [^3 H]AMPA (QUIS), [3H]kainate and sodium-dependent L-[^3 H]-glumatate binding assays. […] Beckman MP scintillation cocktail containing 7 mL/1 acetic acid was then added and the samples counted on a Beckman LS 5800 or 3801 liquid scintillation counter with automatic corrections for quenching and counting efficiency. […] Radioligand binding to the synaptic plasma membranes was analyzed using Scatchard and Hill transformations and the Ki values of the compounds determined using logit-log transformations. […]

[2] = molecular target: [^3 H]MK-801 binding, rat SPM (synaptic plasma membranes); assay: [^3 H]MK-801 Binding assay (modulation of [^3 H]MK-801 binding); conditions: 5.0 nM [^3 H]MK-801, L-glutamate 10.0 nM; Triton X-100 treated rat SPM; pH 7.4; 25° C., 30 min
Method: Modulation of [^3 H]MK-801 binding was performed using Triton X-100 (0.04% v/v) treated rat SPM that had been extensively washed. Assay incubations were at 25° C. for 30 min. and contained 5.0 nM [^3 H]MK-801, L-glutamate (10.0 nM), and various concentrations of the tested compounds in 50 mM Tris/acetate, pH 7.4. The assay was stopped by rapid filtration, using Brandel MB-48 Harvester, through Whatman GF/B filters treated with 0.05% polyethylenimine and the samples washed four times with 2.0 mL cold buffer. The radioactivity associated with the filter was determined by liquid scintillation spectrometry. Nonspecific binding was defined using 60 μM MK-801. IC50 were determined using a logit-log transformation of the binding data.

[3] = molecular target: Kainate (KA) receptor; assay: [^3 H]kainate (KA) receptor subclass binding assay, synaptic plasma membranes; conditions: 0.5 nM [^3 H]kainate; SPM; pH 7.4; 0-4° C., 60 min
Method: as §1

Row | [^3 H]GLU % inhibition ([1]; @ 10 μM) [%] | pKi [2] | KA Ki [3] [nM] | pKi ([1]; NMDA-specific L-[^3 H]glutamate 12.5 nM, Triton X-100 treated SPM, pH 7.4, 0-4° C., 10 min) | Compound
1 | 42 | – | – | – | O=C(O)c1cn2c(n1)NC(CP(=O)(O)O)CC2 (stereo not shown) [Example 2, 7-phosphonomethyl-5,6,7,8-tetrahydro-imidazo[1,2-a]pyrimidine-2-carboxylicacid]
2 | – | 6.55 | > 10000 | 6.15 | O=C(O)c1cn2c(n1)NCCC2CP(=O)(O)O (stereo not shown) [Example 1, 5-Phosphonomethyl-5,6,7,8-tetrahydro-imidazo [1,2-a]pyrimidine-2-carboxylic acid, ammonium salt]
